Reference: patent US6852722B2, “Compositions and methods for stimulating gastrointestinal mobility” (Pfizer Inc., priority 2000, dated 2005)

Tested on: Male CD Sprague-Dawley rats
Test: Gastrointestinal transit in rats (51Cr marker: gastric emptying and geometric center)
Assay type: in vivo, rat
Conditions: for effect on gastrointestinal transit: 0.1 mg/kg oral; for % Gastric Emptying: 51Cr marker 15 min after dose, killed 20 min later; for % Gastric Emptying / Geometric Center: mean ± SEM; for Geometric Center: stomach = segment 0, intestine segments 1-10; for increase in gastric emptying / increase in geometric center (transit through stomach and small intestine): relative to vehicle
Procedure: Male CD Sprague-Dawley rats (175-225 grams) are fitted with tail cups to prevent coprophagy and fasted overnight. The next day the rats are orally given either vehicle (water, 5 ml/kg) or a solution of the test compound in water at doses of 0.1, 0.5, 1 or 5 mg/kg p.o. Fifteen minutes later, the rats are given 1.0 ml of an evaporated milk solution containing 20,000 cpm of ^51Cr as sodium chromate.
The rats are killed 20 minutes after administration of the radioactive marker. The gastroesophageal, pyloric, and ileocecal junctions are ligated, the stomach is removed and the small intestine is divided into ten equal lengths. The stomach and each length of intestine are assayed for radioactivity with a gamma counter. Gastric emptying is determined for each rat by comparing the amount of radioactivity in the intestine relative to the total in the intestine plus stomach. In addition, the geometric center of the distribution of the radioactive marker is used to measure the overall transit rate through the stomach and intestine. Geometric center is calculated as: Σ((fraction of ^51Cr per segment)×(segment number)). For these calculations the stomach is segment number 0 while the ten intestinal segments are designated 1 to 10. Thus, a geometric center of 0.0 would indicate that the entire load of ^51Cr had remained in the stomach.
Results from test compound-treated rats and vehicle-treated rats are compared using one-way ANOVA and Dunnett's test for simultaneous multiple comparisons. The effect of the test compound on gastrointestinal transit in rats is evaluated by measuring gastric emptying and the geometric center of distribution of an orally administered radioactive marker.

Compound | effect on gastrointestinal transit | % Gastric Emptying (0.1 mg/kg p.o.) [%] | Geometric Center (0.1 mg/kg p.o.) | increase in gastric emptying (0.5 mg/kg oral) [%] | increase in geometric center (transit through stomach and small intestine) (0.5 mg/kg oral) [%] | % Gastric Emptying (0.5 mg/kg p.o.) | Geometric Center (0.5 mg/kg p.o.) | increase in geometric center (transit through stomach and small intestine) (1 mg/kg oral) [%] | increase in gastric emptying (1.0 mg/kg oral) [%] | % Gastric Emptying (1 mg/kg p.o.) | Geometric Center (1 mg/kg p.o.) | increase in geometric center (transit through stomach and small intestine) (5 mg/kg oral) [%] | increase in gastric emptying (5.0 mg/kg oral) [%] | % Gastric Emptying (5 mg/kg p.o.) | Geometric Center (5 mg/kg p.o.) | gastric emptying and transport through the upper GI tract (doses of 0.5, 1 and 5 mg/kg oral) | % Gastric Emptying (1 mg/kg p.o., listed as 1st test compound) | % Gastric Emptying (5 mg/kg p.o., listed as 1st test compound)
CC(C)(N)C(=O)N[C@H](COCc1ccc(F)cc1F)C(=O)N1CCC2=NN(CC(F)(F)F)C(=O)[C@]2(Cc2ccccn2)C1 [second test compound] | no effect | 68.9 ± 3.4 | 3.1 ± 0.2 | 21 | 37 | *79.5 ± 3.6% | *3.9 ± 0.3 | 50 | 37 | *89.9 ± 2.3% | *4.3 ± 0.2 | 42 | 34 | *88.3 ± 2.4% | *4.1 ± 0.2 | increased |  | 
CN1N=C2CCN(C(=O)[C@@H](COCc3ccccc3)NC(=O)C(C)(C)N)C[C@@]2(Cc2ccccc2)C1=O [first test compound, 2-amino-N-(2-(3a-(R)-benzyl-2-methyl-3-oxo-2,3,3a,4,6,7-hexahydro-pyrazolo-[4,3-c]pyridin-5-yl)-1-(R)-benzyloxymethyl-2-oxo-ethyl)-isobutyramide] | no effect | 62.5 ± 3.4 | 2.82 ± 0.17 | 25 | 39 | *79.0 ± 4.2% | *4.03 ± 0.26 | 67 | 45 | 92% | *4.81 ± 0.21 | 68 | 49 | 94% | *4.85 ± 0.19 |  | *91.5 ± 1.6% | *93.7 ± 1.4%
